The subject of assay [1] is surface expression of NPC1L1 in MDCKII cells. The assay is described as follows: Effect of lovastatin on surface expression of NPC1L1 ([3H]AS binding) in MDCKII cells. Format: cell-based, dog. The following applies: 4 μM lovastatin; for effect on [3H]AS binding: cells grown in 5% LPDS, 72 h. As for the experimental part: To determine whether the expression pattern of NPC1L1 in MDCKII cells is sensitive to changes in the endogenous concentration of cholesterol, MDCKII cells were seeded and grown in either 10% FBS or 5% lipoprotein deficient serum (5% LPDS) in the absence or presence of the HMG CoA reductase inhibitor, lovastatin.

The target in assay [2] is T1, human NPC1L1 (Homo sapiens, UniProt Q9UHC9).
T1 construct: expressed in transfected cells
T1 sequence (Q9UHC9 22-1359): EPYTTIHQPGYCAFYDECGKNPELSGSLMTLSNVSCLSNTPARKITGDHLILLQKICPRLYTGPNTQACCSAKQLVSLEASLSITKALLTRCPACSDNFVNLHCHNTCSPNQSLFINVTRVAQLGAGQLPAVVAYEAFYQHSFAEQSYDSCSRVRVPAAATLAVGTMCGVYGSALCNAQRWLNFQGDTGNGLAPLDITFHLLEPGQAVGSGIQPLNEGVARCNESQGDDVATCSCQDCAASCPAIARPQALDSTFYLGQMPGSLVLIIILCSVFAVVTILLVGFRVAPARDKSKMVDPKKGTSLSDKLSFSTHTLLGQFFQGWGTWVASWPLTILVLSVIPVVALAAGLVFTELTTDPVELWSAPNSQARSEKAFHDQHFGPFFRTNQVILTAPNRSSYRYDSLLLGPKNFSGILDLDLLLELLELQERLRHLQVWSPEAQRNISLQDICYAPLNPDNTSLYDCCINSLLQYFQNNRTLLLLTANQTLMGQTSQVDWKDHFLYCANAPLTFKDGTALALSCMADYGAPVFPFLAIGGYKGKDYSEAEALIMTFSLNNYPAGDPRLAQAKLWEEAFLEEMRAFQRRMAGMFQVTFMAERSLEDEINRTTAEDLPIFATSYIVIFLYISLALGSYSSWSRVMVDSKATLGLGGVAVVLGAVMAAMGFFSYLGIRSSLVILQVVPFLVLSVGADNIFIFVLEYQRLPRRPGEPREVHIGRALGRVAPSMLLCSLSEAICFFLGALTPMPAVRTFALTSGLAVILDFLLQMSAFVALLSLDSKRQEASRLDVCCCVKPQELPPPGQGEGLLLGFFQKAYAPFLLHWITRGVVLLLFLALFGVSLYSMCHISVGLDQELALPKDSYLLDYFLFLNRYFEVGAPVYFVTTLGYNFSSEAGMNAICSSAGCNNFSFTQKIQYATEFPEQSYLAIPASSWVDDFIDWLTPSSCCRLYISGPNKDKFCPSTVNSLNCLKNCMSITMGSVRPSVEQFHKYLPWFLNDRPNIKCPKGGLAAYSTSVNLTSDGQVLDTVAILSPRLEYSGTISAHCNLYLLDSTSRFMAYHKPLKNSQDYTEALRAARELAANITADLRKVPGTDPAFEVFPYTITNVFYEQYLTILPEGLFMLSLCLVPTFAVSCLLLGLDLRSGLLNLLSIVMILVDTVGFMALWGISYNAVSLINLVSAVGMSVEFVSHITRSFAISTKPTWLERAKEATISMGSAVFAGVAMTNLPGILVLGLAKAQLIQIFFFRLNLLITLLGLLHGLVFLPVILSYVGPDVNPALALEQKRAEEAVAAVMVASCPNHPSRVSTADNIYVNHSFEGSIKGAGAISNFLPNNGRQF
The experiment in a line: [3H]AS binding to hNPC1L1/MDCKII-Flp cells. The following applies: FIG. 7D, read-out: Ki inhibition of [3H]AS binding. As for the experimental part: (§1) rNPC1L1/HEK293 and TsA201 cells were seeded at a density of 10,000 cells per well in 96-well poly-D-lysine coated plates and cells were allowed to attach for approximately 18 h at 37° C. TsA201 cells were subsequently transfected with dog NPC1L1/pcDNA5/FRT according to the manufacturer's instructions (Roche) and incubated for 3 days at 37° C. MDCKII-derived, LLC-PKI, HepG2, or CaCo-2 cells were seeded at a density of 25,000 cells per well in 96-well tissue culture treated plates, and cells were allowed to attach and differentiate for approximately 72 h at 37° C., except for CaCo-2 cells where differentiation took approximately 14 days at 37° C. […] Duplicate samples were averaged for each experimental point. […] Dissociation kinetics were determined by addition of 100 μM EZE-gluc, and incubating for different periods of time. Nonspecific binding was defined in the presence of 100 μM EZE-gluc. At the end of the incubation period, cells were washed twice with 200 μl of pre-warmed DMEM to separate bound from free ligand, 1% SDS was added to the wells followed by 5 ml of Scintillant, and radioactivity associated with cells was determined using a β-counter. […] Thereafter, plates were placed on ice and cells were washed twice with ice-cold PBS, followed by ice-cold acid wash with DMEM, pH 3.5, for 1, 5 or 15 minutes. […] For Transwell experiments, MDCKII cells were seeded at 200,000 cells/well in a 24-well plate and incubated for 3 days at 37° C. […] Thereafter, both apical and basolateral compartments were washed three times with PBS, and the Transwell filter was cut out and its associated radioactivity determined using afi-counter. Data from saturation, competition and ligand dissociation experiments were analyzed as described in the literature; see, Priest, et al., 2004 Biochemistry 43:9866-9876; Knaus et al., 1995 Biochemistry 34:13627-13634. The association rate, k1, was determined by employing the pseudo-first-order rate equation k1=kobs([LR]e/[L][LR]max)) where [LR]max is the concentration of the complex at equilibrium, [L] is the concentration of ligand, [LR]max is the total receptor concentration, kobs is the slope of the pseudo-first order plot, ln([LR]e/([LR]e−[LR]t)) versus time, and [LR]t is the receptor-ligand complex at one given time point t.
To validate MDCKII cells as an appropriate surrogate system for monitoring NPC1L1-dependent processes, we evaluated their ability to perform EZE-sensitive cholesterol flux using a similar protocol to that recently reported. This assay makes use of the ability of βmCD to deplete membrane-bound cholesterol. […]
(§2) To further characterize the [^3H] cholesterol influx process into MDCK cells, the potency of EZE-like compound PS for inhibiting [^3H] cholesterol uptake was determined.

The target in assay [3] is T1, human NPC1L1. The experiment in a line: [3H]cholesterol flux into hNPC1L1/MDCKII-Flp cells. It counts as cell-based. The settings on record: hNPC1L1/MDCKII-Flp, FIG. 7D; read-out: IC50 block of [3H]cholesterol flux. As for the experimental part: Flux assays were performed essentially as described by Yu et al., 2006 J Biol. Chem. 281:6616-6624. Briefly, cell growth medium was completely aspirated and replaced with 200 μl of 5% LPDS containing the appropriate concentration of compound and incubated at 37° C./3 h in a 5% CO2 incubator. Media was subsequently aspirated from cells and cells were incubated in 200 μl of 0-5.5% βmCD dissolved and filtered through a […] filter at 37° C./45 minutes in a 5% CO2 incubator. Media was dumped from cells that were then washed twice with 125 μl of 5% LPDS before media was aspirated and [3H]cholesterol complexed to BSA in 5% LPDS was added; see Yu et al., 2006 J. Biol. Chem. 281:6616-6624. After 45 minute incubation, cells were washed twice with DMEM, thoroughly aspirated and then 1% SDS was added prior to extraction for scintillation counting.
To validate MDCKII cells as an appropriate surrogate system for monitoring NPC1L1-dependent processes, we evaluated their ability to perform EZE-sensitive cholesterol flux using a similar protocol to that recently reported. This assay makes use of the ability of βmCD to deplete membrane-bound cholesterol. Subsequent exposure of cells to [^3H] cholesterol provides a time-dependent flux of this substrate into the cells. […] In an attempt to improve the assay window, a stable MDCKII-Flp cell line over-expressing human NPC1L1, hNPC1L1/MDCKII-Flp, was generated.
as §2

The target in assay [4] is T2, rat NPC1L1 (Rattus norvegicus, UniProt Q6T3U3).
T2 construct: expressed in transfected cells
The experiment in a line: [3H]AS binding to rNPC1L1/HEK293 cells (saturation, kinetics, competition, acid wash). As for the experimental part: rNPC1L1/HEK293 and TsA201 cells were seeded at a density of 10,000 cells per well in 96-well poly-D-lysine coated plates and cells were allowed to attach for approximately 18 h at 37° C. TsA201 cells were subsequently transfected with dog NPC1L1/pcDNA5/FRT according to the manufacturer's instructions (Roche) and incubated for 3 days at 37° C. MDCKII-derived, LLC-PKI, HepG2, or CaCo-2 cells were seeded at a density of 25,000 cells per well in 96-well tissue culture treated plates, and cells were allowed to attach and differentiate for approximately 72 h at 37° C., except for CaCo-2 cells where differentiation took approximately 14 days at 37° C. […] Duplicate samples were averaged for each experimental point. […] To determine the kinetics of ligand association, cells were incubated with [^3H]AS for different periods of time. Dissociation kinetics were determined by addition of 100 μM EZE-gluc, and incubating for different periods of time. Nonspecific binding was defined in the presence of 100 μM EZE-gluc. At the end of the incubation period, cells were washed twice with 200 μl of pre-warmed DMEM to separate bound from free ligand, 1% SDS was added to the wells followed by 5 ml of Scintillant, and radioactivity associated with cells was determined using a β-counter. […] Thereafter, plates were placed on ice and cells were washed twice with ice-cold PBS, followed by ice-cold acid wash with DMEM, pH 3.5, for 1, 5 or 15 minutes. […] For Transwell experiments, MDCKII cells were seeded at 200,000 cells/well in a 24-well plate and incubated for 3 days at 37° C. […] Thereafter, both apical and basolateral compartments were washed three times with PBS, and the Transwell filter was cut out and its associated radioactivity determined using afi-counter. Data from saturation, competition and ligand dissociation experiments were analyzed as described in the literature; see, Priest, et al., 2004 Biochemistry 43:9866-9876; Knaus et al., 1995 Biochemistry 34:13627-13634. The association rate, k1, was determined by employing the pseudo-first-order rate equation k1=kobs([LR]e/[L][LR]max)) where [LR]max is the concentration of the complex at equilibrium, [L] is the concentration of ligand, [LR]max is the total receptor concentration, kobs is the slope of the pseudo-first order plot, ln([LR]e/([LR]e−[LR]t)) versus time, and [LR]t is the receptor-ligand complex at one given time point t.
Incubation of rNPC1L1/HEK293 cells with 5 nM [311]AS results in a time-dependent association of ligand with cells that reaches equilibrium in ˜3 h (FIG. 1B). The nonspecific binding component is time-independent and has been subtracted from the experimental data. A semilogarithmic transformation of the data yielded a linear dependence (FIG. 1B, inset), as expected for a pseudo-first order reaction, and the slope of this line gives kobs of 0.0208 min^−1. The association rate constant, k1, calculated as described under Example 3, is 2.4×10^6 M^−1 min^−1.
Ki values, determined as described above, are presented in Table 1 below and display the expected rank order of potency for interaction of these ligands with rat NPC1L1; Garcia-Calvo et al., 2005 Proc. Natl. Acad. Sci. USA 102:8132-8137.
Such an approach has previously been previously used to characterize cell surface, non-covalent interactions; Hopkins & Trowbridge, 1983 J. Cell Biol. 97:508-521; Chen et al., 1998 Proc. Natl. Acad. USA 95:6373-6378.

The target in assay [5] is dog NPC1L1 endogenously expressed in MDCKII cells (Canis lupus familiaris, UniProt A0A8I3RZG1). The experiment in a line: [3H]AS binding to MDCKII cells (saturation, kinetics, competition, acid wash). As for the experimental part: as §1
dog NPC1L1 endogenously expressed in MDCKII cells, sequence (A0A8I3RZG1 entry or part of it): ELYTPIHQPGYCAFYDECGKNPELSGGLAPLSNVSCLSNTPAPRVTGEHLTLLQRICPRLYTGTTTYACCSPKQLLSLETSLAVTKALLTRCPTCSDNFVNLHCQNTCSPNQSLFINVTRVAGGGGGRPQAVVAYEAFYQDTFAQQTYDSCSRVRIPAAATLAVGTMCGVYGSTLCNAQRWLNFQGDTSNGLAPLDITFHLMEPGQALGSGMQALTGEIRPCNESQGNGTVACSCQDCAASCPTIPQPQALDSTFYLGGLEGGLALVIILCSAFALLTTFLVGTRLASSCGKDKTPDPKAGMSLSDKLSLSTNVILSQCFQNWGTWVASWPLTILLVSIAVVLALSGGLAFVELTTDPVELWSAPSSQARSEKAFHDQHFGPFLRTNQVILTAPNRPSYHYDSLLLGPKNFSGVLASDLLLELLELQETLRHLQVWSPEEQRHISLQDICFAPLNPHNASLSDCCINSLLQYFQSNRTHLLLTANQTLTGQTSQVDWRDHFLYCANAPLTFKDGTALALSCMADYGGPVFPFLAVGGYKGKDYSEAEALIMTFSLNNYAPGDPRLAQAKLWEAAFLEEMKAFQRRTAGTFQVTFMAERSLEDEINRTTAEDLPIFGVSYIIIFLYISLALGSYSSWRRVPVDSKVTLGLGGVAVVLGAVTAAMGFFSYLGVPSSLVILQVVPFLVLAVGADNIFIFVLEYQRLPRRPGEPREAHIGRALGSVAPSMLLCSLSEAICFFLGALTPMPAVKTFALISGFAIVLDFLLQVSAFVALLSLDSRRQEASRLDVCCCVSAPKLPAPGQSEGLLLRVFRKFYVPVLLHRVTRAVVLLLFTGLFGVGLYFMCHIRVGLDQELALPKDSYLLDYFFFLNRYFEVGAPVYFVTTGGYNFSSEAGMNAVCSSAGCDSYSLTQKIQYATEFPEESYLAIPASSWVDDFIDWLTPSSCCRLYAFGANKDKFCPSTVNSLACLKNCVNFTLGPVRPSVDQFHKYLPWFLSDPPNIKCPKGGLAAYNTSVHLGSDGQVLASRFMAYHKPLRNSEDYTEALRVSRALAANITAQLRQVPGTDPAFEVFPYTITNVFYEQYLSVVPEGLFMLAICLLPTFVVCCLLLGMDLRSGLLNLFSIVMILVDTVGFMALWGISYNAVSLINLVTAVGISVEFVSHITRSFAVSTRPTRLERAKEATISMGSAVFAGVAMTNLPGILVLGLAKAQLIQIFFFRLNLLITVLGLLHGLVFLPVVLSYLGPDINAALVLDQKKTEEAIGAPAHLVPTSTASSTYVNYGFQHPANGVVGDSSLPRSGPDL
In assay [6] the target is dog NPC1L1 (Canis lupus familiaris, UniProt A0A8I3RZG1). The assay is described as follows: [3H]AS binding to dog NPC1L1 transiently expressed in TsA201 cells. As for the experimental part:
as §1
To further validate this statement, cloned dog NPC1L1 was transiently expressed in TsA201 cells and binding of [^3]AS to these cells was then characterized (FIG. 5 and Table 1).

dog NPC1L1, sequence (A0A8I3RZG1 entry or part of it): as above

On to `CC[C@H](C)C(=O)O[C@H]1C[C@@H](C)C=C2C=C[C@H](C)[C@H](CC[C@@H]3C[C@@H](O)CC(=O)O3)[C@H]21` [lovastatin], for which the figures for the “effect on [3H]AS binding” value in assay [1] and in assay [1] (listed as Lovastatin) were “doubles” and “increase”, respectively. Also, the “effect on surface expression of NPC1L1” value in assay [1] (cells grown in 10% FBS) is given as “does not cause any significant effect”.

In general, Ki refers to the dissociation constant of the complex between target and ligand, obtained from inhibition or displacement. By IC50 is commonly meant the point on the concentration scale where inhibition reaches its midpoint. Consider `O=C(O)C1OC(Oc2ccc(C3C(CCC(O)c4ccc(F)cc4)C(=O)N3c3ccc(F)cc3)cc2)C(O)C(O)C1O` (single isomer, unassigned; ent-1) [ent-1], for which the Ki in assay [2] is above 100000 nM. Also, the 50% inhibitory concentration (IC50) in assay [3] is above 100000 nM.

Turning to `CS(=O)(=O)NCCCc1ccc(N2C(=O)[C@H](CC[C@H](O)c3ccc(F)cc3)[C@H]2c2ccc(O[C@@H]3O[C@H](C(=O)O)[C@@H](O)[C@H](O)[C@H]3O)cc2)cc1` [AS, 4-[(2S,3R)-3-[(3S)-3-(4-fluorophenyl)-3-hydroxypropyl]-1-(4-{3-[(methylsulfonyl)amino]propyl}phenyl)-4-oxoazetidin-2-yl]phenyl β-D-gluteopyranosiduronic acid], the IC50 came out at 5.25 nM in assay [4] (5.36 nM [3H]AS, 4 h, 37° C., read-out: IC50 inhibition of [3H]AS binding); 2.86 nM in assay [5] (5.49 nM [3H]AS, 4 h, 37° C., read-out: IC50 inhibition of [3H]AS binding); 3.79 nM in assay [6] (4.65 nM [3H]AS, 4 h, 37° C., read-out: IC50 inhibition of [3H]AS binding). Besides, the inhibition constant (Ki) came to 2.35 ± 0.49 nM in assay [4] (rNPC1L1/HEK293 cells); 0.34 ± 0.04 nM in assay [5] (MDCKII cells); 1 ± 0.11 nM in assay [6] (dog NPC1L1/TsA201 cells, read-out: Ki (competition with [3H]AS)). Also, the Kd in assay [4] (rNPC1L1/HEK293 cells, increasing [3H]AS, 4 h, 37° C., read-out: Kd (equilibrium dissociation constant, saturation binding)) came out at 4.62 ± 0.69 nM; in assay [5] (MDCKII cells, increasing [3H]AS, 4 h, 37° C.), 0.59 ± 0.07 nM; in assay [6] (dog NPC1L1/TsA201 cells, read-out: Kd (saturation binding)), 2.15 ± 0.39 nM.
